Results reported in PubChem BioAssay (NCI).
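48-hour exposure; five concentrations; linearly interpolated endpoints. The concentration for full growth arrest is given as TGI.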

Legend:
Test in all cases: NCI tumour cell line growth inhibition, 48 h
786-0 renal = tested on: 786-0 renal
A498 renal = tested on: A498 renal
A549 NSCLC = tested on: A549 NSCLC
ACHN renal = tested on: ACHN renal
BT-549 breast = tested on: BT-549 breast
CAKI-1 renal = tested on: CAKI-1 renal
CCRF-CEM leukemia = tested on: CCRF-CEM leukemia
COLO 205 colon = tested on: COLO 205 colon
DU-145 prostate = tested on: DU-145 prostate
EKVX NSCLC = tested on: EKVX NSCLC
HCC-2998 colon = tested on: HCC-2998 colon
HCT-116 colon = tested on: HCT-116 colon
HCT-15 colon = tested on: HCT-15 colon
HL-60(TB) leukemia = tested on: HL-60(TB) leukemia
HOP-62 NSCLC = tested on: HOP-62 NSCLC
HOP-92 NSCLC = tested on: HOP-92 NSCLC
HS 578T breast = tested on: HS 578T breast
HT29 colon = tested on: HT29 colon
IGROV1 ovarian = tested on: IGROV1 ovarian
K-562 leukemia = tested on: K-562 leukemia
KM12 colon = tested on: KM12 colon
LOX IMVI melanoma = tested on: LOX IMVI melanoma
M14 melanoma = tested on: M14 melanoma
MALME-3M melanoma = tested on: MALME-3M melanoma
MCF7 breast = tested on: MCF7 breast
MDA-MB-231 breast = tested on: MDA-MB-231 breast
MDA-MB-435 = tested on: MDA-MB-435
MDA-N = tested on: MDA-N
MOLT-4 leukemia = tested on: MOLT-4 leukemia
NCI-H226 lung = tested on: NCI-H226 lung
NCI-H23 lung = tested on: NCI-H23 lung
NCI-H460 lung = tested on: NCI-H460 lung
NCI-H522 lung = tested on: NCI-H522 lung
NCI/ADR-RES ovarian = tested on: NCI/ADR-RES ovarian
OVCAR-3 ovarian = tested on: OVCAR-3 ovarian
OVCAR-4 ovarian = tested on: OVCAR-4 ovarian
OVCAR-5 ovarian = tested on: OVCAR-5 ovarian
OVCAR-8 ovarian = tested on: OVCAR-8 ovarian
PC-3 prostate = tested on: PC-3 prostate
RPMI-8226 leukemia = tested on: RPMI-8226 leukemia
RXF 393 renal = tested on: RXF 393 renal
SF-268 CNS = tested on: SF-268 CNS
SF-295 CNS = tested on: SF-295 CNS
SF-539 CNS = tested on: SF-539 CNS
SK-MEL-2 melanoma = tested on: SK-MEL-2 melanoma
SK-MEL-28 melanoma = tested on: SK-MEL-28 melanoma
SK-MEL-5 melanoma = tested on: SK-MEL-5 melanoma
SK-OV-3 ovarian = tested on: SK-OV-3 ovarian
SN12C renal = tested on: SN12C renal
SNB-19 CNS = tested on: SNB-19 CNS
SNB-75 CNS = tested on: SNB-75 CNS
SR leukemia = tested on: SR leukemia
SW-620 colon = tested on: SW-620 colon
T-47D breast = tested on: T-47D breast
TK-10 renal = tested on: TK-10 renal
U251 CNS = tested on: U251 CNS
UACC-257 melanoma = tested on: UACC-257 melanoma
UACC-62 melanoma = tested on: UACC-62 melanoma

Compound: COc1cc([C@@H]2c3cc4c(cc3[C@@H](Nc3ccc(N=Cc5ccc(C(=O)O[C@@H](C(=O)O[C@H]6C[C@@]7(O)[C@@H](OC(=O)c8ccccc8)[C@@H]8[C@]9(OC(C)=O)CO[C@@H]9C[C@H](O)[C@@]8(C)C(=O)[C@H](OC(C)=O)C(=C6C)C7(C)C)[C@@H](NC(=O)c6ccccc6)c6ccccc6)cc5)cc3)[C@H]3COC(=O)[C@H]23)OCO4)cc(OC)c1O
- TGI (786-0 renal): 9.53 µM
- TGI (A498 renal): 4.48 µM
- TGI (A549 NSCLC): > 50 µM
- TGI (ACHN renal): 10.5 µM
- TGI (BT-549 breast): > 50 µM
- TGI (CAKI-1 renal): 14.4 µM
- TGI (CCRF-CEM leukemia): 11 µM
- TGI (COLO 205 colon): > 50 µM
- TGI (DU-145 prostate): 17.2 µM
- TGI (EKVX NSCLC): > 50 µM
- TGI (HCC-2998 colon): > 50 µM
- TGI (HCT-116 colon): > 50 µM
- TGI (HCT-15 colon): > 50 µM
- TGI (HL-60(TB) leukemia): 9.73 µM
- TGI (HOP-62 NSCLC): > 40.2 µM
- TGI (HOP-92 NSCLC): > 50 µM
- TGI (HS 578T breast): > 50 µM
- TGI (HT29 colon): > 50 µM
- TGI (IGROV1 ovarian): > 50 µM
- TGI (K-562 leukemia): > 22.5 µM
- TGI (KM12 colon): > 50 µM
- TGI (LOX IMVI melanoma): > 50 µM
- TGI (M14 melanoma): > 50 µM
- TGI (MALME-3M melanoma): > 50 µM
- TGI (MCF7 breast): > 50 µM
- TGI (MDA-MB-231 breast): > 50 µM
- TGI (MDA-MB-435): > 50 µM
- TGI (MDA-N): > 50 µM
- TGI (MOLT-4 leukemia): 10.5 µM
- TGI (NCI-H226 lung): 29.3 µM
- TGI (NCI-H23 lung): > 38.9 µM
- TGI (NCI-H460 lung): 15.9 µM
- TGI (NCI-H522 lung): > 50 µM
- TGI (NCI/ADR-RES ovarian): > 50 µM
- TGI (OVCAR-3 ovarian): > 50 µM
- TGI (OVCAR-4 ovarian): > 50 µM
- TGI (OVCAR-5 ovarian): > 39.1 µM
- TGI (OVCAR-8 ovarian): > 50 µM
- TGI (PC-3 prostate): > 50 µM
- TGI (RPMI-8226 leukemia): 28.2 µM
- TGI (RXF 393 renal): > 50 µM
- TGI (SF-268 CNS): > 45.6 µM
- TGI (SF-295 CNS): > 27.7 µM
- TGI (SF-539 CNS): > 47.3 µM
- TGI (SK-MEL-2 melanoma): > 50 µM
- TGI (SK-MEL-28 melanoma): > 50 µM
- TGI (SK-MEL-5 melanoma): > 42.9 µM
- TGI (SK-OV-3 ovarian): > 35.8 µM
- TGI (SN12C renal): 17.2 µM
- TGI (SNB-19 CNS): > 50 µM
- TGI (SNB-75 CNS): 37.2 µM
- TGI (SR leukemia): 0.35 µM
- TGI (SW-620 colon): > 50 µM
- TGI (T-47D breast): > 50 µM
- TGI (TK-10 renal): > 50 µM
- TGI (U251 CNS): 35.4 µM
- TGI (UACC-257 melanoma): > 50 µM
- TGI (UACC-62 melanoma): > 50 µM
